Laboratory results: article PMC12082738 (Journal of Enzyme Inhibition and Medicinal Chemistry, 2025)
Values belong to the molecule of their own block, whether it stands above or below them.

Key:
S. cerevisiae α-GUS = S. cerevisiae α-GUS (Saccharomyces cerevisiae, UniProt P07265); assay: α-GUS inhibition assay; assay type: biochemical
α-GUS = conditions: read-out: IC50 against α-GUS; cited from earlier work
β-GUS = conditions: read-out: IC50 against β-GUS; cited from earlier work
E. coli β-GUS = E. coli β-GUS (Escherichia coli, UniProt P05804); assay: β-GUS inhibition assay; assay type: biochemical; conditions: for Inhibition type, β-GUS: Lineweaver–Burk and Dixon plots, substrate 4-MUG
Sequence of E. coli β-GUS (P05804 whole entry): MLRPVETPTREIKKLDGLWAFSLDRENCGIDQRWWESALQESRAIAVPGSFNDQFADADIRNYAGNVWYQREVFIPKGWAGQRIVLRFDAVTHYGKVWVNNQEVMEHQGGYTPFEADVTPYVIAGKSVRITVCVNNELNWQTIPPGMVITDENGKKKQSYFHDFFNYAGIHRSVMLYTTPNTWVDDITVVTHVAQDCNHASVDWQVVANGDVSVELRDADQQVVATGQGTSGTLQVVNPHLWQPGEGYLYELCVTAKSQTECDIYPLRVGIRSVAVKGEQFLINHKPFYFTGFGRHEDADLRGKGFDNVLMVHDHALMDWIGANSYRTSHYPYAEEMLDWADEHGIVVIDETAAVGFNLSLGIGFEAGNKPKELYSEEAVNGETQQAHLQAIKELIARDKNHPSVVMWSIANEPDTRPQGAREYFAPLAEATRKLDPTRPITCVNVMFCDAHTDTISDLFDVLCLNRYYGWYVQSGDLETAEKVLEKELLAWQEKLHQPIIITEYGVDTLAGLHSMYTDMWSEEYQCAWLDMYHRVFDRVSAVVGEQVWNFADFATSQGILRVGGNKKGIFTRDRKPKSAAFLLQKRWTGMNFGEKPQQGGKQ

[1] = target: protein tyrosine phosphatase-1B; conditions: read-out: IC50 protein tyrosine phosphatase-1B; cited from earlier work
[2] = tested on: human umbilical vein endothelial cells; conditions: cited from earlier work
[3] = tested on: platelet-activating factor acetyltransferase; conditions: read-out: IC50 platelet-activating factor acetyltransferase; cited from earlier work
α-amylase = conditions: read-out: IC50 α-amylase; cited from earlier work
L6 myotubes = conditions: cited from earlier work
colorectal cancer cells = conditions: 7.1 μM; cited from earlier work
[4] = substrate kinetics, preliminary kinetic assay

Sequence of S. cerevisiae α-GUS (P07265 whole entry): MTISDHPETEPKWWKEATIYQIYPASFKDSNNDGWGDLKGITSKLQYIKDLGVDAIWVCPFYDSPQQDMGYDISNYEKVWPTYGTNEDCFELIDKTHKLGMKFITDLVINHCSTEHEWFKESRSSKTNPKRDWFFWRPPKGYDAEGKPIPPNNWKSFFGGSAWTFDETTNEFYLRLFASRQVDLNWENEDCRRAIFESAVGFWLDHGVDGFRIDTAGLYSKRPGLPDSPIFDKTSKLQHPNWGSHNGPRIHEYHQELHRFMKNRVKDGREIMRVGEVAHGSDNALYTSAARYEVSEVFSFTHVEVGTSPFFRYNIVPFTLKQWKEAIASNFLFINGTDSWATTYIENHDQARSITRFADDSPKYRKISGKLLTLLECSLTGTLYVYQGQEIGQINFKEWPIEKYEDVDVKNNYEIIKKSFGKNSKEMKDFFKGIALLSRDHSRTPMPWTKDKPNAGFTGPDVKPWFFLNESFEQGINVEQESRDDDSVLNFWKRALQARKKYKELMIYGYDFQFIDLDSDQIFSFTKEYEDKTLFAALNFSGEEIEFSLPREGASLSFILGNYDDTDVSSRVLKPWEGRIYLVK

SMILES: O=c1c(-c2ccc(O)cc2)coc2cc(O)ccc12 [daidzein]
IC50 (α-GUS): > 100 µM | IC50 (β-GUS): > 100 µM

SMILES: O=C(O)[C@@H](O)[C@H]1OC(=O)[C@H](O)[C@H]1O [DSL, D-Saccharic acid 1,4-lactone, reference compound]
IC50 (E. coli β-GUS): 55 ± 7.6 µM

SMILES: CC(C)=CCc1c(O)c(CC=C(C)C)c2occ(-c3ccc(O)cc3)c(=O)c2c1O [DPG, 6,8-diprenylgenistein]
Ki (S. cerevisiae α-GUS): 11.4 ± 2.2 µM | IC50 (S. cerevisiae α-GUS; IC50 for inhibition of α-GUS, substrate PNPG 500 μM): 60.6 ± 10.3 µM | Inhibition type, α-GUS (S. cerevisiae α-GUS; Lineweaver–Burk and Dixon plots, substrate PNPG): Un-competitive | IC50 (E. coli β-GUS): 4.05 ± 0.16 µM | Ki (E. coli β-GUS): 2.62 ± 0.1 µM | Inhibition type, β-GUS (E. coli β-GUS): Non-competitive | Inhibition type, β-GUS (E. coli β-GUS; listed as Diprenylgenistein): competitive | IC50 [1]: 2.3 to 28 µM | concentration reversing high glucose induced injury [2]: > 2.5 µM | IC50 [3]: 19 µM | IC50 (α-amylase): 14.8 µM | concentration increasing basal and insulin-stimulated glucose uptake (L6 myotubes): > 10 µM | effect on colorectal cancer cells (colorectal cancer cells): trigger dual apoptosis and autophagy

Results, then the molecule that gave them:

Vmax for PNPG hydrolysis by α-GUS (S. cerevisiae α-GUS; [4]): 1.05 ± 0.03 μmol/min/U
SMILES: O=[N+]([O-])c1ccc(O[C@H]2O[C@H](CO)[C@@H](O)[C@H](O)[C@H]2O)cc1 [PNPG, 4-Nitrophenyl-α-D-glucopyranoside, reference compound]

Vmax for 4-MUG hydrolysis by β-GUS (E. coli β-GUS; [4]): 7.21 ± 0.10 µmol/min/mg
SMILES: Cc1cc(=O)oc2cc(O[C@@H]3O[C@H](C(=O)O)[C@@H](O)[C@H](O)[C@H]3O)ccc12 [4-MUG, 4-Methylumbelliferyl-β-D-glucuronide, reference compound]
